Measurements from US8357377B2, “Cyclodextrin-based materials, compositions and uses related thereto” (priority 2002, dated 2013).

Assay: Rat PVA sponge model, morphological analysis (Masson's Trichrome sections)
Parameters: species or system Harlan Sprague-Dawley rats
Conditions: in vivo
Description: Six small incisions (0.5 cm) were performed and polyvinyl alcohol (PVA, M-PACTO®) sponges were subcutaneously implanted on the ventral side of male Harlan Sprague-Dawley rats.
Four days after implantation, test and control materials were diluted with vPBS and liquid collagen (Cohesion Technologies®) or 58 kD Cyclodextrin (CD)-Adamantane matrix as described above and injected into PVA sponges. Final collagen formulation was 1.8 mg/mL, pHed with NaOH, and brought up to volume with vPBS. Final 58 kD Cyclodextrin (CD)-Adamantane matrix formulation was 100 mg/mL. 200 μL total volume of test reagent was delivered to each sponge. Animals were sacrificed and sponges were removed 2 days after injections. Sponges were cut into three pieces and the majority of the sponge (˜70-80%) was frozen in liquid nitrogen and stored at −80° C. for QPCR and QRT-PCR analysis. A small portion of the sponge was fixed in 4% PFA at 4° C. for 18 hours, paraffin embedded, and sectioned (5 μm). Sections were stained using Masson's Trichrome (cells=black, vasculature=red, and collagen=blue) and Hematoxylin-Eosin methods. Tissue sections were analyzed microscopically for gross histology by two separate investigators.
5 μm, Masson's Trichrome stained paraffin sections were analyzed by two separate observers. Sponge characteristics were qualitatively evaluated by the following criteria: Minimal<Light<Moderate<Heavy<Severe for all categories except Capsule Size. The following criteria were used for evaluation of Capsule Size: Thin<Moderate<Thick<Very Thick.

Collagen
Capsule Size: Thin
Immune Response: Minimal
Immune response (gross histological examination): minimal immune response
